Several values for one entry are separate records, joined by “and”; a condition that tells them apart may be missing. Equal entries are not always repeated. Where two headings read alike, the source gives them in different places. Blank lines part the entries; values can stand above or below the compound they belong to.
What was measured:
[1] = Effect of interference sugars on DBA2+ based conductimetric sensor (solution resistance); conditions: interference sugar 1 mM (maltose 10 mM), relative to resistance with glucose alone
Protocol: To a reservoir in a device set up as depicted shown in FIG. 3, 1 mL of the initial testing solution (2 mM DBA2+P and 2.5 mM Na3PO4, pH=7.6) was added. Direct current voltage is 0 mV due to the same material for two electrodes. Alternating current voltage was set at 20 mV, and the impedance was scanned vs. frequency from 10 Hz to 10 MHz (FIGS. 4A-4C). At 0.1 MHz, the capacitive reactance is very small compared to the resistance (R) of the solution, and thus this frequency was used for the following tests.
To the testing solution, trace quantities (2-5 μL) of a concentrated (0.5 or 2 M) glucose aqueous solution were continuously added. Glucose solutions were added every 30 minutes with concentrations spanning the diabetes-relevant range, (i.e. [glucose]=0-30 mM). The resistance of solution vs. time was collected for 30 min after each addition. After adding glucose to 30 mM, the testing solution was diluted to 12 mM by adding 1.5 mL of fresh testing solution. 1.5 mL was then discharged after mixing and the resistance of the remaining 1 mL solution was monitored.
Interference effects from other sugars, i.e. fructose, galactose, maltose, and lactose, were examined. Tests were performed at two different glucose concentrations typically experienced in diabetes, 5 mM (i.e. a physiological concentration of glucose) and 20 mM (i.e. a pathophysiological concentration of glucose) in 1 mL of testing solution. In these tests, interferent concentrations were higher or equal to 2.5 times the maximum plasma concentration (MPC). To the testing solution containing glucose, 2 μL or 5 μL of one of the interference solutions (containing fructose, galactose, maltose, or lactose) were added and the solution resistance (R) was monitored. The interference by 1 mM fructose or galactose was tested due to the considerable high affinity compared to the other […].

[2] = maximum physiological or therapeutic plasma concentration, cited from earlier work
[3] = pKa measurement by absorbance at 280 nm as a function of pH; format: physicochemical; conditions: for pKa: aqueous buffer solutions in 96-well microplate, 1 mM DBA2+Br, absorbance at 280 nm vs pH
Protocol: 100 mM buffer solutions for titration from pH 4 to pH 11.5 were prepared with different buffer systems to ensure the accuracy of pH for the following tests. NaAc/HAc was prepared for pH 4.05, 4.53, 5.03 and 5.53; Na2HPO4/NaH2PO4 was prepared for pH 6.00, 6.51, 6.99 and 7.51; NaB(OH)4/B(OH)3 was prepared for pH 8.05, 8.56 9.03 and 9.53; Na2CO3/NaHCO3 was prepared for pH 10.01, 10.54, 11.01 and 11.49.
50 μL of buffer solutions at different pH was added into 96 microplate wells. Then 50 μL of 2 mM DBA2+Br or a mixture of 2 mM DBA2+Br and 400 mM glucose in water was added to each well.
After shaking for 10 s and waiting for 10 min, the absorbance of each well at 280 nm was recorded on a microplate reader.
Due to the interaction between borate and glucose, the pH of the borate buffer solution is changed and thus the data for DBA2+Br/Glucose from pH 8 to 9.5 were abandoned. The rest of the data was plotted in Origin. The equilibrium equation for DBA2+ is as follows: […]
Then equation (4) is used for non-linear fitting in Origin, and pKa is defined as the pH at which half of the boronic acid is in the anionic state:
The same non-linear curve fitting also was used for the determination of pKa of DBAG2+G which has equilibrium equation as follow: […]
The pKa of DBA2+ before and after glucose binding was determined based on the differences in absorption spectra upon formation of tetrahedral borate anion in high pH media (Springsteen, et al., Tetrahedron, 58:5291-5300 (2002)).
pKa values were determined by curve fitting the changes in absorbance as a function of pH (FIG. 1).

[4] = Dissociation constant (Kd) by UV absorbance titration at 280 nm, galactose; format: binding; conditions: 1 mM DBA2+Br, 50 mM phosphate buffer pH 7.4
Protocol: (§1) The affinity and selectivity of DBA+ to glucose were then tested by comparing affinity with other five mono- or di-saccharides, particularly fructose, galactose, maltose, sucrose, and lactose. The UV absorption changes at 280 nm of DBA+ with the increase of sugar concentration was used for the affinity calculation. The absorbance values of 1 mM DBA+Br at 280 nm as function of sugar concentrations from 0 to 512 mM were measured in 50 mM Phosphate PBS (pH=7.4).
(§2) where sqrt refers to the square root 11 Equation (11) is used for non-linear fitting in Origin to obtain the Kd values.
(§3) The disassociation constant (Kd) of DBA2+ was calculated through non-linear curve fitting according to previous work (Stootman, et al., Analyst, 131:1145-1151 (2006)).

[5] = Dissociation constant (Kd) by UV absorbance titration at 280 nm, glucose; format: binding; conditions: 1 mM DBA2+Br, 50 mM phosphate buffer pH 7.4
Protocol: 100 μL of glucose aqueous solutions with two-fold serial dilutions from 1024 mM to 0.5 mM were added into a 96 well microplate. Then 100 μL of 2 mM DBA2+Br in 100 mM phosphate buffer (pH=7.4) was added. After shaking for 10 s and waiting for 30 min, the absorbance of each well at 280 nm was recorded on a microplate reader.
as §1
The titration data was plotted. The disassociation equation for complex DBAG is as follows: […]
where DBAG refers to all three possible complexes, DBA2+G, DBA1+G and DBA-G, and DBA2 refers to all the unbound molecules, DBA2+, DBA1+ and DBA0.
as §2, §3

[6] = Dissociation constant (Kd) by UV absorbance titration at 280 nm, maltose; format: binding; conditions: 1 mM DBA2+Br, 50 mM phosphate buffer pH 7.4
Protocol: as §1, §2, §3

[7] = Dissociation constant (Kd) by UV absorbance titration at 280 nm, lactose; format: binding; conditions: 1 mM DBA2+Br, 50 mM phosphate buffer pH 7.4
Protocol: as §1, §2, §3

[8] = Dissociation constant (Kd) by UV absorbance titration at 280 nm, fructose; format: binding; conditions: 1 mM DBA2+Br, 50 mM phosphate buffer pH 7.4
Protocol: as §1, §2, §3

[9] = Dissociation constant (Kd) by UV absorbance titration at 280 nm, sucrose; format: binding; conditions: 1 mM DBA2+Br, 50 mM phosphate buffer pH 7.4
Protocol: as §1, §2, §3

[10] = testing solution with 5 mM glucose
[11] = testing solution with 20 mM glucose
[12] = presence of 200 mM glucose (DBA-G), read-out: pKa in the presence of glucose

Compound: OC[C@H]1O[C@H](O[C@H]2[C@H](O)[C@@H](O)[C@H](O)O[C@@H]2CO)[C@H](O)[C@@H](O)[C@@H]1O [Maltose, maltose]
Resistance increase [1, 10]: 0.4%
Resistance increase [1, 11]: 1.6%
Max plasma [sugar] [2]: 3.5 mM

Compound: O=C[C@H](O)[C@@H](O)[C@@H](O)[C@H](O)CO [Galactose, galactose]
Resistance increase [1, 10]: 1.4%
Resistance increase [1, 11]: 0.6%
Max plasma [sugar] [2]: 0.28 mM

Compound: O=C(CO)[C@@H](O)[C@H](O)[C@H](O)CO [Fructose, fructose]
Resistance increase [1, 10]: 3% and 2.9%
Resistance increase [1, 11]: −0.3%
Max plasma [sugar] [2]: 0.133 mM
Max plasma [sugar] ([2]; listed as fructose): 0.13 mM

Compound: C[N+]1(C)Cc2ccc(cc2)C[N+](C)(C)Cc2ccccc2[B-]2(O)OC3OC4CO[B-](O)(OC4C(O)C3O2)c2ccccc2C1 (centres unmarked) [DBA-G]
pKa [3, 12]: 6.3

Compound: OC[C@H]1O[C@@H](O[C@H]2[C@H](O)[C@@H](O)C(O)O[C@@H]2CO)[C@H](O)[C@@H](O)[C@H]1O (some centres unmarked) [Lactose, lactose]
Resistance increase [1, 10]: 0.2%
Resistance increase [1, 11]: 1.6%
Max plasma [sugar] [2]: 0.015 mM

pKa1 ([3]; absence of glucose): 9.0
pKa2 ([3]; absence of glucose): 9.7
pKa ([3]; absence of glucose, read-out: pKa): 9.4
pKa [3, 12]: 6.3
pKa1 ([3]; presence of 200 mM glucose): 5.9
pKa2 ([3]; presence of 200 mM glucose): 6.9
change in pKa for DBA2+ and DBA-G ([3]; upon glucose binding, centers around pH 7.4): ~3 unit
Kd [4]: 16000 µM
Kd ([4]; listed as Formula III): ~16000 µM
Kd [5]: 900 ± 100 µM
Kd [8]: 1700 µM
Kd ([8]; listed as Formula III): ~1700 µM
Compound: C[N+](C)(Cc1ccc(C[N+](C)(C)Cc2ccccc2B(O)O)cc1)Cc1ccccc1B(O)O [DBA2+]
Kd value for maltose [6]: could not be determined due to their low affinity
Kd value for lactose [7]: could not be determined due to their low affinity
Kd value for sucrose [9]: could not be determined due to their low affinity
